# Measured values as given in paper PMC8487611 (ACS chemical neuroscience, 2021).
# Target: α3β4 nicotinic acetylcholine receptor (mouse) (Mus musculus, UniProt Q8R493+Q8R4G9)
# Assay: two-electrode voltage clamp of Xenopus oocytes, block of ACh
# Format: cell-based
# Chain of α3β4 nicotinic acetylcholine receptor (mouse) (Q8R4G9 26-499): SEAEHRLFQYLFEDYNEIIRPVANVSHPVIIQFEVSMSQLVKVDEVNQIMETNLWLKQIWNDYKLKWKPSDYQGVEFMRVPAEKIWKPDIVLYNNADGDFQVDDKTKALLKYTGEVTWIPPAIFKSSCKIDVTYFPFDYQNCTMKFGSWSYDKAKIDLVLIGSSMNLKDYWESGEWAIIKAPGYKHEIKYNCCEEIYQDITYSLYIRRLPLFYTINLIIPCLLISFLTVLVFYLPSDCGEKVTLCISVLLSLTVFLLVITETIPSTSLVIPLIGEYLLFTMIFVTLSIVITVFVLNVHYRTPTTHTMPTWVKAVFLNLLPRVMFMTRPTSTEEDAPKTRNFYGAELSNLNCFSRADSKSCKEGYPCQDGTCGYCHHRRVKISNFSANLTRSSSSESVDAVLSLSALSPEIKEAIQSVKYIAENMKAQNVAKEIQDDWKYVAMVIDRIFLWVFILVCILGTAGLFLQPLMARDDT
# Chain of α3β4 nicotinic acetylcholine receptor (mouse) (Q8R493 21-495): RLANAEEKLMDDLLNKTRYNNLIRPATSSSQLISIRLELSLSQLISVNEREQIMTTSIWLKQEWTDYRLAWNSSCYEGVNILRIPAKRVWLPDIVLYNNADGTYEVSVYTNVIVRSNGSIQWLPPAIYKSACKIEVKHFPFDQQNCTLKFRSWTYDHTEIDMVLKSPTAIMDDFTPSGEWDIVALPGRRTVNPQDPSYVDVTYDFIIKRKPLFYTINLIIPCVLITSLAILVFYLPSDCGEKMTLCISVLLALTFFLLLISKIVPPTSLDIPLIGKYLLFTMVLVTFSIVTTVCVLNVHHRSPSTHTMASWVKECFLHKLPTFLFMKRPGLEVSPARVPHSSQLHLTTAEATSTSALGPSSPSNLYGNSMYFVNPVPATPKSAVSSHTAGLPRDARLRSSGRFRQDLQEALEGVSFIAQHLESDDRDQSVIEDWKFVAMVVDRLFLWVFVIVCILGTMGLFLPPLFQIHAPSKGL
substance,measurement,value
molleamine C [compound 3],IC50,1.43 µM
